# Reference: patent publication US7816522B2, “Triazolone derivatives” (Eisai Co., Ltd., priority 2006, dated 2010)
# Structures can show the parent of a compound that is named as a salt.
# Biological target: T1, human clotting factor VIIa (Homo sapiens, UniProt P08709)
# T1 construct: a human clotting factor VIIa (hereinafter, “Factor VIIa”) purified sample; purchased Enzyme Research Laboratories HFVIIa
# Assay: Inhibitory activity against clotting factor VIIa (chromogenic substrate Spectrozyme FVIIa, TF/Factor VIIa enzyme solution)
# Type: biochemical
# Conditions: human Factor VIIa 5 nmol/L with human TF 10 nmol/L, room temperature 40 minutes, 405 nm
# Protocol: [Inhibitory Activity Against Clotting Factor VIIa]
# Dimethylsulfoxide (DMSO) solutions were prepared with compounds of the invention at concentration of 10 mmol/L (10 mmol/L compound solutions).
# One packet of tris-hydroxymethylaminomethane-preset (hereinafter referred to as “Tris preset”) (Product of Sigma Corp., Catalog No. T8293), 8.8 g of sodium chloride (NaCl) and 1 g of bovine serum albumin (hereinafter abbreviated as “BSA”) were dissolved in 1 L of water to prepare a Tris-BSA buffer (100 mmol/L Tris, 0.15 mol/L NaCl, 0.1% BSA, pH 7.4).
# This Tris-BSA buffer (180 μL) was added to the aforementioned 10 mmol/L compound solution (20 μL). A 10-fold dilution series was prepared for this mixture using the aforementioned Tris-BSA buffer, and solutions with the compound at concentrations of 1.0 mmol/L, 100, 10, 1, 0.1, 0.01 and 0.001 μmol/L were prepared (1.0 mmol-0.001 μmol/L compound solutions). As a control, a solution was prepared by 10-fold dilution of DMSO with the Tris-BSA buffer (hereinafter referred to as “control 10% solution”).
# After dissolving one packet of Tris preset, NaCl (8.8 g) and BSA (1 g) in water (about 900 mL), there were added 1 mol/L aqueous calcium chloride (CaCl2) (15 mL) and 1 mg/mL aqueous cephalin (30 mL), and the total volume was brought to 1 L by adding water. To this solution there was added a human tissue factor (hereinafter, “TF”) sample (product of Calbiochem, Catalog No. 612151) (450 μg) to a TF sample concentration of 10 nmol/L, and then a human clotting factor VIIa (hereinafter, “Factor VIIa”) purified sample (product of Enzyme Research Laboratories, Catalog No. HFVIIa) (250 μg) was added to a Factor VIIa purified sample concentration of 5 nmol/L, to prepare an enzyme solution (100 mmol/L Tris-HCl, 0.15 mol/L NaCl, 15 mmol/L CaCl2, 30 μg/mL cephalin, 1 mg/mL BSA, 10 nmol/L TF, 5 nmol/L Factor VIIa).
# To 110 μL of this enzyme solution there was added 15 μL of each of the 1.0 mmol-0.001 μmol/L compound solutions, and then 25 μL of a 1.0 mmol/L synthetic chromogenic substrate solution (Spectrozyme FVIIa, product of American Diagnostica, Catalog No. 217L) was added and the mixture was allowed to stand at room temperature for 40 minutes. Next, the amount of 4-nitroanilide released into the solution was quantitated by spectrophotometry (405 nm).
# A control measurement was conducted in the same manner, using the control 10% solution instead of the compound solution.
# This measurement yielded the enzyme reaction inhibition in the presence of 100 μmol/L to 0.1 nmol/L of each compound of the invention.
# The enzyme reaction inhibition at each compound concentration was subjected to non-linear regression analysis, and the IC50 value for inhibitory activity of each compound against clotting factor VIIa was calculated.
# T1 sequence (P08709 213-466 limits assumed): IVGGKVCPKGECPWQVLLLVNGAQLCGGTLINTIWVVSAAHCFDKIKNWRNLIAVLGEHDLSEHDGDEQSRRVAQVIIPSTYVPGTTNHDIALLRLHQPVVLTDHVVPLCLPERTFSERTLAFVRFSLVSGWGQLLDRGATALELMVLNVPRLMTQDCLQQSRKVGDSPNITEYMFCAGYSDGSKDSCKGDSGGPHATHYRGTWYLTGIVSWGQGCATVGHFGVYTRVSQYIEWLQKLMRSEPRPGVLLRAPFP
# T1 sequence (P08709 61-212 limits assumed): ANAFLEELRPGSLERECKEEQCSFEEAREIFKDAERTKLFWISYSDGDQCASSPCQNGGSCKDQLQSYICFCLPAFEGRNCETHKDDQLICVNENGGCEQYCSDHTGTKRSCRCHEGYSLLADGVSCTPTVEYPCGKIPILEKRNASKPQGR
# T1 sequence (P13726 33-295 partner): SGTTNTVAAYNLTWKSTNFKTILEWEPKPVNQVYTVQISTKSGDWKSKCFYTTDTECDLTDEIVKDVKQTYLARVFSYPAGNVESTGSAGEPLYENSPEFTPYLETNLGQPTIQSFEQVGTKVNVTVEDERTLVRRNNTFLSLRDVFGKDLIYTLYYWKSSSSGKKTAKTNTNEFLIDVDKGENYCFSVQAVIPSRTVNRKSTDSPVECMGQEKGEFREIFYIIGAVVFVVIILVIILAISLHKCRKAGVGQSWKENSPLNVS
row,IC50 [nM],SMILES
1,5,"CCc1cc(OC(C)CN(C)C)c(F)c(C(Nc2ccc(C(=N)N)cc2)c2nn(-c3ccccn3)c(=O)[nH]2)c1 (stereo not drawn) [Example 141, 4-({[3-(2-dimethylamino-1-methylethoxy)-5-ethyl-2-fluorophenyl]-(5-oxo-1-pyridin-2-yl-4,5-dihydro-1H-[1,2,4]triazol-3-yl)methyl}amino)benzamidine bistrifluoroacetate]"
2,7.5,"COCCc1cc(C(Nc2ccc(C(=N)N)cc2)c2nn(-c3ncccn3)c(=O)[nH]2)cc(OC)c1OC (racemic) [Example 129, (R) and (S)-4-({[3,4-dimethoxy-5-(2-methoxyethyl)-phenyl]-(5-oxo-1-pyrimidin-2-yl-4,5-dihydro-1H-[1,2,4]triazol-3-yl)methyl}amino)benzamidine acetate]"
3,6.5,"COc1cc(C(Nc2ccc(C(=N)N)c(F)c2)c2nn(-c3ccsc3C(=O)O)c(=O)[nH]2)c(F)c2c1OCCO2 (racemic) [Example 231, 3-{3-[(4-Carbamimidoyl-3-fluorophenylamino)-(5-fluoro-8-methoxy-2,3-dihydrobenzo[1,4]dioxin-6-yl)methyl]-5-oxo-4,5-dihydro-[1,2,4]triazol-1-yl}thiophene-2-carboxylic acid]"
4,6.3,"COc1cc(C(Nc2ccc(C(=N)N)cc2)c2nn(-c3ncccc3F)c(=O)[nH]2)cc2c1OCOC2 (racemic) [Example 133, (R) and (S)-4-({[1-(3-fluoropyridin-2-yl)-5-oxo-4,5-dihydro-1H-[1,2,4]triazol-3-yl]-(8-methoxy-4H-benzo[1,3]dioxin-6-yl)methyl}amino)benzamidine acetate]"
5,17.8,"COc1cc(C(Nc2ccc(C(=N)N)cc2)c2nn(-c3[nH]ncc3C(=O)O)c(=O)[nH]2)c(F)c2c1OCCCO2 (stereo not drawn) [Example 196, 5-{3-[(4-Carbamimidoylphenylamino)-(6-fluoro-9-methoxy-3,4-dihydro-2H-benzo[b][1,4]dioxepin-7-yl)methyl]-5-oxo-4,5-dihydro-[1,2,4]triazol-1-yl}-1H-pyrazole-4-carboxylic acid acetate]"
6,11.8,"COc1cc(F)c(C(Nc2ccc(C(=N)N)cc2F)c2nn(-c3ncccn3)c(=O)[nH]2)cc1OC (racemic) [Example 236, 3-Fluoro-4-{[(R) and (S)-(2-fluoro-4,5-dimethoxyphenyl)-(5-oxo-1-pyrimidin-2-yl-4,5-dihydro-1H-[1,2,4]triazol-3-yl)methyl]amino}benzamidine acetate]"
7,10.1,"COc1cc(C(Nc2ccc(C(=N)N)cc2)c2nn(-c3ncsc3C(=O)O)c(=O)[nH]2)cc2c1OCCCO2 (single isomer, unassigned) [Example 180, 4-{3-[(4-carbamimidoylphenylamino)-(9-methoxy-3,4-dihydro-2H-benzo[b][1,4]dioxepin-7-yl)methyl]-5-oxo-4,5-dihydro-[1,2,4]triazol-1-yl}thiazole-5-carboxylic acid]"
8,11.3,"COc1cc(F)c(C(Nc2ccc(C(=N)N)cc2)c2nn(-c3ncccn3)c(=O)[nH]2)cc1OC (racemic) [Example 111, 4-{[(R) and (S)-(2-fluoro-4,5-dimethoxyphenyl)-(5-oxo-1-pyrimidin-2-yl-4,5-dihydro-1H-[1,2,4]triazol-3-yl)methyl]amino}benzamidine acetate]"
9,10.3,"COc1cc(OC)c(F)c(C(Nc2ccc(C(=N)N)cc2)c2nn(-c3ncccc3N)c(=O)[nH]2)c1 (racemic) [Example 137, (R) and (S)-4-({[1-(3-aminopyridin-2-yl)-5-oxo-4,5-dihydro-1H-[1,2,4]triazol-3-yl]-(2-fluoro-3,5-dimethoxyphenyl)methyl}amino)benzamidine acetate]"

# The remaining lines, values behind:
row,SMILES,IC50 [nM]
1,"COc1cc(C(Nc2ccc(C(=N)N)cc2)c2nn(-c3ncccn3)c(=O)[nH]2)c(F)c2c1OCC2 (racemic) [Example 40, (R) and (S)-4-{[(4-fluoro-7-methoxy-2,3-dihydrobenzofuran-5-yl)-(5-oxo-1-pyrimidin-2-yl-4,5-dihydro-1H-[1,2,4]triazol-3-yl)methyl]amino}benzamidine acetate]",9
2,"COc1ccccc1-n1nc(C(Nc2ccc(C(=N)N)cc2)c2cc(C)cc(OC)c2F)[nH]c1=O (stereo not drawn) [Example 14, 4-({(2-fluoro-3-methoxy-5-methylphenyl)-[1-(2-methoxyphenyl)-5-oxo-4,5-dihydro-1H-[1,2,4]triazol-3-yl]methyl}amino)benzamidine trifluoroacetate]",5.9
3,"COc1cc(C(Nc2ccc(C(=N)N)cc2)c2nn(-c3ncccn3)c(=O)[nH]2)cc(CO)c1OC (stereo not drawn) [Example 23, 4-{[(5-hydroxymethyl-3,4-dimethoxyphenyl)-(5-oxo-1-pyrimidin-2-yl-4,5-dihydro-1H-[1,2,4]triazol-3-yl)methyl]amino}benzamidine acetate]",23.9
4,"CCOc1cc(OC)c(F)c(C(Nc2ccc(C(=N)N)cc2)c2nn(-c3cccnn3)c(=O)[nH]2)c1 (racemic) [Example 71, (R) and (S)-4-{[(5-ethoxy-2-fluoro-3-methoxyphenyl)-(5-oxo-1-pyridazin-3-yl-4,5-dihydro-1H-[1,2,4]triazol-3-yl)methyl]amino}benzamidine acetate]",7.7
5,"COc1cc(OC)c(F)c(C(Nc2ccc(C(=N)N)cc2)c2nn(-c3ncccn3)c(=O)[nH]2)c1 (racemic) [Example 66, (R) and (S)-4-{[(2-fluoro-3,5-dimethoxyphenyl)-(5-oxo-1-pyrimidin-2-yl-4,5-dihydro-1H-[1,2,4]triazol-3-yl)methyl]amino}benzamidine acetate]",7.9
6,"CCOc1cc(OCCF)c(F)c(C(Nc2ccc(C(=N)N)cc2)c2nn(-c3cccnn3)c(=O)[nH]2)c1 (racemic) [Example 70, 4-({(R) and (S)-[5-ethoxy-2-fluoro-3-(2-fluoroethoxy)phenyl]-(5-oxo-1-pyridazin-3-yl-4,5-dihydro-1H-[1,2,4]triazol-3-yl)methyl}amino)benzamidine acetate]",4.9
7,"COc1cc(C(Nc2ccc(C(=N)N)cc2)c2nn(-c3cnccn3)c(=O)[nH]2)cc2c1OCOC2 (racemic) [Example 102, 4-{[(R) and (S)-(8-methoxy-4H-benzo[1,3]dioxin-6-yl)-(5-oxo-1-pyrazin-2-yl-4,5-dihydro-1H-[1,2,4]triazol-3-yl)methyl]amino}benzamidine acetate]",11.5
8,"COCCOc1cc(C)cc(C(Nc2ccc(C(=N)N)cc2)c2nn(-c3ncccn3)c(=O)[nH]2)c1 (racemic) [Example 94, 4-{[(R) and (S)-[3-(2-methoxyethoxy)-5-methylphenyl]-(5-oxo-1-pyrimidin-2-yl-4,5-dihydro-1H-[1,2,4]triazol-3-yl)methyl]amino}benzamidine acetate]",12.7
9,"CCc1cc(OCC#N)cc(C(Nc2ccc(C(=N)N)cc2)c2nn(-c3ncccn3)c(=O)[nH]2)c1 (stereo not drawn) [Example 77, 4-{[(3-cyanomethoxy-5-ethylphenyl)-(5-oxo-1-pyrimidin-2-yl-4,5-dihydro-1H-[1,2,4]triazol-3-yl)methyl]amino}benzamidine acetate]",8.8
10,"COC(=O)c1ccccc1-n1nc(C(Nc2ccc(C(=N)N)cc2)c2cc(OC)c(OC)cc2F)[nH]c1=O (racemic) [Example 108, (R) and (S)-2-{3-[(4-carbamimidoylphenylamino)-(2-fluoro-4,5-dimethoxyphenyl)methyl]-5-oxo-4,5-dihydro-[1,2,4]triazol-1-yl}benzoic acid methyl ester acetate]",8
11,"Cc1cc(OC2CCN(C)CC2)cc(C(Nc2ccc(C(=N)N)cc2)c2nn(-c3ncccn3)c(=O)[nH]2)c1 (racemic) [Example 43, (R) and (S)-4-({[3-methyl-5-(1-methylpiperidin-4-yloxy)phenyl]-(5-oxo-1-pyrimidin-2-yl-4,5-dihydro-1H-[1,2,4]triazol-3-yl)methyl}amino)benzamidine diacetate]",7.9
12,"C=CCOc1cc(COC)cc(C(Nc2ccc(C(=N)N)cc2)c2nn(-c3ncccn3)c(=O)[nH]2)c1 (racemic) [Example 85, 4-{[(R) and (S)-(3-allyloxy-5-methoxymethylphenyl)-(5-oxo-1-pyrimidin-2-yl-4,5-dihydro-1H-[1,2,4]triazol-3-yl)methyl]amino}benzamidine acetate]",15.3
